Assay results from PubChem BioAssay AID179 (DTP/NCI, 2004).
Several values for one entry are separate records, joined by “and”; a condition that tells them apart may be missing. Equal values may be shown once. Activity calls are given as the source filed them.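 Rule for the calls: active = compounds giving half or more protection of infected cells from virus-caused growth loss, again on retest; inactive = the rest.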 Where a SMILES comes first, the peptide text is derived from it. Bridges are numbered along the chain shown (N, C = ends). The star is where a group is joined. Cbz = O=C(OCc1ccccc1)*

System: CEM cells HIV-1 protection, formazan growth assay
Assay: NCI AIDS Antiviral Assay
Conditions: for IC50: measured here: growth of uninfected CEM cells
Summary of the method: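 Five concentrations of each compound were applied to infected and uninfected human CEM cells. Protection from HIV-1 was judged from growth measured with a soluble formazan assay.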

Compound | EC50 | IC50 | outcome
COC(=O)NC(=O)c1cn(C2CCCCC2)c(=O)[nH]c1=O | > 123 µM | > 123 µM | –
CCOC(=O)C(C)(c1c(C)[nH]c2ccccc12)c1c(C)[nH]c2ccccc12 | – | – | inactive
Cc1ccc2cc(NC(=O)CN)c3ccc(C)nc3c2n1 | > 20 µM | 3.72 µM | –
CC1=C(C(=O)N[C@@H](Cc2ccccc2)C(=O)O)N2C(=O)[C@@H](NC(=O)[C@@H](N)CC(C)C)[C@H]2SC1 | 174 µM | > 200 µM | –
Cc1c(O)c2ccccc2[nH]c1=O | > 200 µM | > 200 µM | –
c1ccc(CNc2nnc(NCc3ccccc3)c3c2ncn3Cc2ccccc2)cc1 | – | – | inactive
COC(=O)c1cc(C(=O)c2cc(C(=O)OC)c(OC)c(Br)c2C)c(C)c(Br)c1OC | > 200 µM | > 200 µM | –
CC(=O)OC[C@@H](OC(C)=O)[C@@H](OC(C)=O)[C@H]1OC[C@@H]2C[C@H]([C@H]1OC(C)=O)N(Cc1ccccc1)O2 | 93.3 µM | > 200 µM | –
COC(=O)c1cc(Cc2cc(C(c3cc(Cc4cc(Cl)c(O)c(C(=O)OC)c4)c(O)c(C(=O)OC)c3)C(Cl)(Cl)Cl)cc(C(=O)OC)c2O)cc(Cl)c1O | > 200 µM | > 200 µM | –
O=C1OC(c2ccccc2)(c2ccccc2)c2ccc3ccc(F)cc3c21 | – | – | inactive
NC(P(=O)(O)O)P(=O)(O)O | > 200 µM | > 200 µM | –
O=c1c(-c2ccccc2)c[nH]c2cc([N+](=O)[O-])c(/C(Cl)=C/c3ccccc3)cc12 | – | – | inactive
CCOC(=O)NC(=O)c1cn(CCN2CCN(c3ncnc4nc[nH]c34)CC2)c(=O)[nH]c1=O | – | – | inactive
Clc1cc(Cl)c2n[se]nc2c1 | – | – | inactive
COc1ccc(NC(=O)C(=O)NO)c(OC)c1 | > 537 µM | 234 µM | –
COc1ccc2c(c1)CC1c3[nH]c4ccccc4c3CCN1C2 (stereo not given) | 56.2 µM and > 102 µM | 102 µM and 46.8 µM | –
O=C1NC(O)CCN1C1OC(CO)C(O)C1O (stereo not given) | > 200 µM | > 200 µM | –
CNC(=S)NNc1ncnc2c1c(-c1ccc(Cl)cc1)cn2-c1ccc(C)cc1 | – | – | inactive
NNC(=O)/C(=C/c1cccc([N+](=O)[O-])c1)NC(=O)c1ccccc1 | > 398 µM | > 398 µM | –
O=CNC(CSSCC(NC=O)C(=O)O)C(=O)O (stereo not given) | > 200 µM | > 200 µM | –
CCOC(=O)C1C=CC(C)C2CCCCC12N1CCCC1 (stereo not given) | – | – | inactive
CCN(CC)CCn1c2ccccc2c(=O)c2c(O)ccc(O)c21 | – | – | inactive

Compound | EC50 | IC50 | outcome
O=S(=O)(c1ccccc1)C1CC(c2ccccc2)N(c2ccccc2)O1 (stereo not given) | > 27.5 µM | > 27.5 µM | –
CC1CC(C)(C)N=C(C(C)CC(C)(C)C)O1 (stereo not given) | > 200 µM | 60.3 µM | –
COc1cc(C)c2c(=O)c3c(oc2c1)C(=O)c1c(OC)c(OC)cc(OC)c1C3=O | – | – | inactive
CC(C)[Si](OC1=C(C(=O)N(C)c2cccc(Cl)c2)CCCC1)(C(C)C)C(C)C | > 200 µM | 9.77 µM | –
COc1ccc(S(=O)(=O)NC(C)C(=O)O)cc1 (stereo not given) | – | – | inactive
Cc1ncc([N+](=O)[O-])n1CCOC(N)=O | > 200 µM | > 200 µM | –
CNC(=O)C1CCCCNC(=O)CCC(NC(=O)OCc2ccccc2)C(=O)N1 (stereo not drawn) (Cbz-Glu-Lys-NHMe; lactam 1-2; configuration not given here) | > 200 µM | > 200 µM | –
COC(=O)/C(C#N)=C(/NCc1ccccc1)Nc1ccccc1 | > 200 µM | 22.4 µM | –
C/C(CC(=O)NC1=CC=C(NC(=O)C/C(C)=N\Nc2ccccc2)CC1)=N/Nc1ccccc1 | > 56.2 µM | > 56.2 µM | –
Cc1nn(C(=O)CC(=O)Nc2ccccc2Cl)c(C)c1N=Nc1ccccc1Cl | – | – | inactive
O=C(/C=C/c1cccc(F)c1)c1ccccc1 | > 31.6 µM | 19.1 µM | –
CCOC1=NC(C(F)(F)F)(C(F)(F)F)N=C(N2CCOCC2)O1 | > 200 µM | > 200 µM | –
Nc1cccc(S(=O)(=O)N(CC(=O)O)c2ccccc2)c1 | – | – | inactive
CCn1c2ccccc2c2cc(N=Nc3ccc(C#N)cc3)ccc21 | 10.7 µM | > 200 µM | –
CCC(C)NC(=S)N/N=C(\C)c1ccccn1 (stereo not given) | > 0.2 µM | 0.0158 µM | –
COc1cc(CNc2nc3ccccc3n2Cc2ccccc2)cc(CN2CCOCC2)c1O | > 200 µM | 32.4 µM | –
CC1=NN2C(=O)CSC2=NC(C)(C)C1 | 263 µM | 1170 µM | –
COC(=O)CN1C(=O)c2cccc3cc([N+](=O)[O-])cc(c23)C1=O | > 200 µM | 21.9 µM | –
CC(C)CCC[C@@H](C)[C@H]1CC[C@H]2[C@@H]3CC[C@H]4C[C@@H](NC(=O)CC=C(c5cc(Cl)c(O)c(C(=O)O)c5)c5cc(Cl)c(O)c(C(=O)O)c5)CC[C@]4(C)[C@H]3CC[C@]12C | 24 µM | 170 µM | –
C/C=C/CC1(C(C)C)C(=O)NC(=S)NC1=O | > 200 µM | > 200 µM | –
NC1C2C(CC(=O)O)OCC=C3CN4CCC1(C(=O)C(=O)O)C4CC32 (stereo not given) | > 28.8 µM | > 28.8 µM | –
CC(=O)Nc1cc2cc(N=CN(C)C)ccc2oc1=O | > 263 µM | 148 µM | –

Compound | EC50 | IC50 | outcome
COC(=O)/C(=N\NC(N)=O)C(C#N)c1ccccc1 (stereo not given) | > 692 µM | > 692 µM | –
C=C(C)CNC1=C(C)C(=O)C2=C(C1=O)[C@H](COC(N)=O)[C@]1(OC)[C@@H]3N[C@@H]3CN21 | > 200 µM | 14.5 µM | –
Cc1c(Cl)ccc2c1NC(=O)C2(O)C(C(=O)c1ccccc1)c1ccccc1 (stereo not given) | > 66.1 µM | > 66.1 µM | –
N=c1sc(N2CCOCC2)nn1CC(=O)c1ccccc1 | > 200 µM | 129 µM | –
CCOC(=O)CC1=NC(=Nc2cc(Cl)ccc2Cl)SC1 | > 77.6 µM | > 77.6 µM | –
NC1=NN(c2ccccc2)C(=O)C1/C(=N\NC(=O)c1cc2ccccc2cc1O)C(=O)Nc1nc([N+](=O)[O-])cs1 (stereo not given) | > 12.9 µM | > 12.9 µM | –
Cn1c2c(c(=O)n(C)c1=O)C(C(=O)O)CC(=O)N2 (stereo not given) | > 200 µM | 170 µM | –
Clc1ccc(CNCCCNCc2ccc(Cl)c(Cl)c2)cc1Cl | > 200 µM | 15.8 µM | –
COc1ccc2nc3ccccc3c(NCCCCCCN(CCCl)CCCl)c2c1 | > 0.2 µM | 0.162 µM | –
COC(=O)c1ccc(NCc2c(O)ccc(O)c2Br)cc1Cl | > 14.8 µM | 6.46 µM | –
CC(=O)N1CC(C)(C)c2c(C)c(O)c(C)c(C)c21 | > 200 µM | 178 µM | –
COc1ccc(NC(=O)C(=O)C2NC(=S)NC2=O)c(OC)c1 (stereo not given) | > 776 µM | > 776 µM | –
CC1(C)CCCCCCC2CC2CCCCCC(C)(C)C1=O (stereo not given) | > 200 µM | 105 µM | –
COc1ccc(/C=C/C(CC(NO)c2ccc(OC)cc2)=N\O)cc1 (stereo not given) | > 200 µM | > 100 µM | –
O=S(=O)(O)C(Cc1nc2ccccc2[nH]1)S(=O)(=O)OCCC1S(=O)(=O)OCCOS1(=O)=O (stereo not given) | > 200 µM | 107 µM | –
COc1cc2c(c(OC)c1OC)C(c1ccc3c(c1)OCO3)C1COC(=O)C1C2 (stereo not given) | > 91.2 µM | > 91.2 µM | –
N#CC12CC3=C(N=C1NC1=C(CCc4ccccc41)C2)c1ccccc1CC3 (stereo not given) | > 200 µM | 3.02 µM | –
O=c1ccn(C(CO)OC(CO)CCP(=O)(O)O)c(=O)[nH]1 (stereo not given) | > 200 µM | > 200 µM | –
N#C/C(=C\NC(=S)NC1CCCCC1)c1nc2ccccc2s1 | > 200 µM | 41.7 µM | –
CC1(C(N)=O)OC12CCCCC2 (stereo not given) | > 200 µM | > 200 µM | –
